Test results as given in patent publication US20230226048A1, “NEW USE OF RABEXIMOD” (Cyxone AB, priority 2020, published 2023).

Tests used:
[1] = system: mixed lymphocytes reaction (MLR) of human donors; assay: Mixed lymphocytes reaction (MLR) of human donors, 3[H]-thymidine incorporation; format: cell-based
Procedure: Peripheral blood mononuclear cells (PBMCs) were prepared and modified for use as stimulator cells through γ-irradiation, or for use as responder cells. Rabeximod was then added to a responder and […] cell mix at various concentrations (of 10^−5, 10^−6, 10^−7 and 10^−8 M) before the cells were incubated. In the test, responder cells should proliferate more in the presence than in the absence of stimulator cells.
Normal PBMCs were obtained from healthy volunteers at the blood bank (Shiba medical center, Tel-Hashomer). Blood donations tested negative to HBSAg, HIV, HCV, ALT, HTLV and TPHA. Twelve donors were obtained in 3 sessions following review by the Committee for Ethical Conduct in the Care and Use of Laboratory Animals of the Hebrew University, Jerusalem, the Institutional Animal Care and Use Committee (IACUC) responsible for approving Harlan Biotech (Israel) animal usage application in compliance with its respective registration under National Institues of Health (NIH) accreditation no. OPR-A01-5011. Peripheral blood mononuclear cells (PBMCs) were freshly separated from heparinized full blood by Ficoll-Hypaque (IsoPrep, Robbins Scientific) density gradient centrifugation. After two washes with PBS, cells were diluted in PBMCs medium and counted. Since MLR was conducted in two-ways format, each donor was utilized as stimulator and as responder.
In each session, 0.87*10^6/ml PBMCs cells from each donor were mixed and then γ-irradiated with 4000 rad (about 6.25 minutes). Cells were diluted in PBMCs medium to give the highest concentration). Further dilutions in ×2-fold were done in PBMCs medium. 50*10^6 were taken from each donor to obtain a mixture of stimulators in each experiment.
Cells were resuspended in PBMCs medium at approximately 2*10^6 cells/ml and incubated in flasks for 2 hours at 5% CO2, 37° C. Adherent cells were dis-carded while non-adherent cells in the supernatant were centrifuged at 700 g for 10 minutes. To enrich for T lymphocytes, cells were resuspended in 5% PBMCs medium and loaded on nylon wool columns (Uni-Sorb, Novamed) at 8*10^7 cells/ml, according to manufacturer instructions.
Cells were seeded in 96-well round-bottom plates at the varying ratios of stimulator vs. responder cells.
^3[H]-Thymidine was added to the cell culture at 18 hrs before the end of the cultivation period (6 days). Cells were harvested and transferred to filters (unifilters GF/C) using the Packard filtermate Cell harvester. Following addition of scintillation fluid (MicroScint20™) to the filters, they were counted in Packard microplate scintillation β-counter. Results are expressed as Counting Per Minutes (CPM).

[2] = system: collagen-induced arthritis model; conditions: dark agouti rats, daily subcutaneous administration from the day of immunization; cited from earlier work
[3] = system: TLR2 stimulated macrophages; assay: TNF-α production by thioglycolate-recruited peritoneal macrophages after LPS or TLR2 stimuli (ELISA); format: cell-based, mouse; conditions: 12.5 ug/ml, added 0 h to +3 h after stimulus; stronger effect if administered early
Procedure: The aim was to investigate whether, after stimulation, Rabeximod has the ability to decrease production of pro-inflammatory cytokines by macrophages isolated from the peritoneal cavity after thioglycolate recruitment. B10.Q mice with/without expression of functional TLR4 matched according to sex and age were used as donors of peritoneal macrophages. Mice were injected on day −5 with sterilized 3% Thioglycolate intraperitoneally. On day 0 the peritoneal cavity was washed with ice cold PBS to collect recruited cells. The cells were counted and added to plates at a final concentration of 200 000 cells/well in medium. Rabeximod diluted in a minimal amount DMSO and then DMEM to final concentration (12.5 ug/ml) was added simultaneously (h 0) or at time points+0.5 h, +1 h or +3 hours after LPS or TLR2 stimuli (Lipomannan). Cells were incubated for 24 hours before the whole plate was frozen. TNF-α ELISA was performed after one week using antibodies from e-biosciences and detected by europium. Mice were injected on […] (1 ml) intraperitoneally. […] TNFα production was determined using a ready-SET-go! […]

IL-6 = assay: Phase IIa clinical trial in rheumatoid arthritis patients, IL-6 assessment (PK/PD population); format: in vivo, human; conditions: RA patients
Procedure: In a phase IIa clinical trial, a total of 225 patients diagnosed with active rheumatoid arthritis were randomized to receive one of the following treatments: • 6.25 mg of Rabeximod (daily) • 15 mg of Rabeximod (daily) • 37.5 mg of Rabeximod (daily) • Placebo
Study drug was provided in the form of a capsule comprising rabeximod in the form of a (micronized) powder. Over 200 patients completed the study.
The primary aim of the study was to evaluate the safety and efficacy of
Rabeximod treatment in RA patients. The study also involved Pharmacokinetic and Pharmacodynamic assessments in a subgroup (PK/PD Population) of 36 patients. This included assessment of changes in hsCRP, TNF-α, IL-6, COMP and anti-CCP.

T cell proliferation = assay: ConA-stimulated proliferation of lymph node cells from DA rats immunized with rat collagen II, [3H]-thymidine; format: cell-based; conditions: ConA 1.5 μg/ml, 48 h
Procedure: draining lymph nodes collected day 9 p.i. from DA rats immunized with rat collagen II (RCII) in Freund's Incomplete Adjuvant (FIA) were used to prepare individual single cell suspensions. Lymph nodes were grinded through wire mesh and cells washed 3 times in incomplete DMEM cell culture medium. Cells were counted by trypan blue exclusion and cell suspensions of 2×10^6 cells/ml in complete DMEM prepared. 4×10^5 cells per well were seeded in flat-bottomed 96-well microtiter plates. Triplicates of each individual cell suspension were incubated with 1.5 μg/ml ConA. ConA was diluted in phosphate buffered saline, D-PBS. Spontaneous proliferation was determined by measuring proliferation in cell cultures without addition of ConA. As a positive proliferation control cells were stimulated with ConA together with 10 μl of the rabeximod vehicle, 0.01 M acetic acid. Doses of rabeximod were added in 10 μl vehicle so that the final concentrations in cell cultures ranged from 50-800 ng/ml. Cell cultures were incubated at 37° C.+5% CO2 for 48 h and 1 μCi of [^3H]-Thymidine per well was added to the cultures for the last 12 h. Cellular incorporation of [^3H]-thymidine was measured using a 1450 Microbeta Wallac Trilux Liquid Scintillation Luminescence Counter after harvesting the cells onto nitrocellulose filters.
Individual Inhibition Indices (1.1.) were calculated by dividing the average counts per minute (cpm) value of each triplicate stimulated with ConA and rabeximod with the average cpm value of the triplicate stimulated with ConA only. The inhibition of proliferation induced by rabeximod addition was expressed as % of the positive control (ConA only), i.e. by multiplying the inhibition indices with 100.

[4] = system: wild type and TLR4 deficient mice; assay: Collagen antibody-induced arthritis (CAIA) boosted with TLR stimuli in mice, arthritis scoring; format: in vivo, mouse; conditions: for arthritis severity: 40 mg/kg subcutaneously every second day, day 5 to 15
From the text: QB mice (10-20 weeks) were generated from a (BALB/cxB10.Q) F1 cross. C57BL/10ScNJ mice (Tlr4^lps-del), hereafter called Tlr4^del, were ordered from The Jackson Laboratory (The Jackson Laboratory, Bar Harbor, Me., USA). These mice have deletion of the Tlr4 gene that results in absence of mRNA and protein and is thus defective in response to LPS stimulation. These mice were crossed together with C57BL/10.Q mice from Medical Inflammation Research, Lund university, Lund, Sweden in order to generate mice expressing major histocompatibility complex (MHC) Aq. Mice were kept and bred in a climate-controlled environment with a 12 h light/dark cycle, fed standard rodent chow and water ad libitum in the animal facility of Medical Inflammation Research, Lund University, Lund, Sweden.
Litters were genotyped for MHC using microsatellite marker D17mit230. Genotyping of Tlr4 was performed according to an earlier described method. Briefly, DNA was prepared from biopsies and primers flanking the 70 kb deletion or amplifying the wild-type sequence absent in the TLR4 deleted mice were used.
The mice were matched according to age and sex, and littermates were used in all experiments. All experiments were approved according to Malmö/Lund ethical committee license M107-07.
Male mice, older than 8 weeks, were injected intravenously on day 0 with a cocktail of four monoclonal antibodies (4 mg in a total volume of 310 μl/mouse) containing M2139, CIIC1, CIIC2 and UL1 antibodies binding to J1, C1^I, D3 and U1 epitopes of CII in order to induce CAIA. Day 5 mice were injected with LPS from Escherichia coli (Sigma-Aldrich, St Louis, Mis-souri, USA), deoxycytoylate-phosphate-deoxyguanylate (CpG) DNA (sequence 1668, MWG; Eurofins MWG, Erdersberg, Germany) or lipomannan (LM) from Mycobacterium segma-tis (InvivoGen, San Diego, Calif., USA) intraperitoneally to boost disease (35-50 μg/mouse in 1 ml phosphate-buffered saline (PBS)).
Mice were blindly scored daily to every second day until the end of the experiment. […]

murine arthritis model = murine arthritis model in mice; cited from earlier work
[5] = cited from earlier work
[6] = system: human peripheral blood mononuclear cells (PBMC); assay: LPS-stimulated cytokine/chemokine release from human PBMC in vitro (multiplex, Luminex); format: cell-based; conditions: PBMC from 7 donors
Procedure: The effect of Rabeximod on the release of GM-CSF, IL-113, IL-6, IL-8, TNF-α, MCP-1, MIP-1a, MIP-1β and RANTES from human peripheral blood mononuclear cells (PBMC) in vitro was evaluated. Rabeximod was tested at two concentrations (1.25 μg/ml and 12.5 μg/ml) on PBMC's isolated from 7 donors. Human PBMCs were isolated from whole blood using a Ficoll gradient. Cells ([…]) were then plated in a volume of 0.5 ml (0.5 ml of vehicle control (1% methanol in RPMI 1640 media) or rabeximod resuspended in methanol and diluted to a concentration of […] media was added). After incubation (1 h 37° C.) with LPS (0.1 mg/ml), cells were further incubated for 18-20 h before supernatant was removed for analysis of cytokine production using cytokine multiplex assays (Biosource, Nivelles, Belgium), accord-ing to the manufacturer's instructions. Data were collected using a Luminex 100 (Luminex Corporation, Austin, Tex., USA). All samples were analyzed in duplicates and a mean value for each sample was calculated.

Cc1cc2nc3c4cc(Cl)ccc4n(CC(=O)NCCN(C)C)c3nc2cc1C [Rabeximod, 9-Chloro-2,3-dimethyl-6-(N,N-dimethylaminoethylamino-2-oxoethyl)-6H-indolo-[2,3-b]quinoxaline]
inhibition of MLR activity ([1]; 10^−5 M, all responder:stimulator ratios): strong inhibitory effect
inhibition of MLR activity ([1]; 10^−8 M): the inhibition decreased to a lesser extent
inhibition of MLR activity ([1]; lower doses (10^−7, 10^−8 M)): less effective
inhibition of MLR activity ([1]; two highest concentrations (10^−5, 10^−6 M), all tested ratios): highly inhibitory
arthritis severity [2]: suppressed
onset of clinical arthritis [2]: significantly delayed
TNF-α production from TLR2 stimulated macrophages [3]: decreases
change in IL-6 median value from baseline (IL-6; 6.25 mg daily, Week 12): −185.0 IU/L
change in IL-6 median value from baseline (IL-6; 6.25 mg daily, Week 16): −804 IU/L
change in IL-6 median value from baseline (IL-6; 15 mg daily, Week 12): −1679.0 IU/L
change in IL-6 median value from baseline (IL-6; 15 mg daily, Week 16): −1879 IU/L
change in IL-6 median value from baseline (IL-6; 37.5 mg daily, Week 12): 136.0 IU/L
change in IL-6 median value from baseline (IL-6; 37.5 mg daily, Week 16): −1124 IU/L
inhibition of T cell proliferation (T cell proliferation; 300 ng/ml): Approximately 50%
inhibition of T cell proliferation (T cell proliferation; 500 ng/ml): approximately 80%
inhibition at 0.3 µg/mL (T cell proliferation; Rattus norvegicus, T-cell, 300 ng/ml): ≥ 50%
inhibition at 0.5 µg/mL (T cell proliferation; Rattus norvegicus, T-cell, 500 ng/ml): ≥ 80%
arthritis severity ([4]; TLR4 deficient mice): reduces
activation of macrophages in animal models of arthritis ([4]; downstream mechanism, likely TLR2 signalling pathway): inhibits
arthritis severity ([4]; wild type mice): reduces
arthritogenic scoring (murine arthritis model): statistically significant durable reductions
paw swelling (murine arthritis model): statistically significant durable reductions
paw thickness (murine arthritis model): statistically significant durable reductions
fraction in plasma bound to protein [5]: approximately 99%
LPS-stimulated production of IL-6 ([6]; 1.25 μg/ml): significantly reduced
LPS-stimulated production of MIP-1α ([6]; 1.25 μg/ml): significantly reduced
LPS-stimulated production of MIP-1β ([6]; 1.25 μg/ml): significantly reduced
LPS-stimulated production of TNFα ([6]; 1.25 μg/ml): significantly reduced
LPS-stimulated production of RANTES ([6]; 12.5 μg/ml): all but RANTES were reduced
LPS-stimulated production of pro-inflammatory cytokines and chemokines other than RANTES ([6]; 12.5 μg/ml): reduced
